# Reference: ChEMBL document CHEMBL3872249, “Computer design, synthesis, and bioactivity analyses of drugs like fingolimod used in the treatment of multiple sclerosis” (Bioorg Med Chem, 2017)
# The source made the active and inactive calls. The rule behind the calls is not given here.
# Assays:
# [1] = tested on: SK-N-SH; assay: Effect on MAG mRNA expression in human SK-N-SH cells at EC10 by qPCR method relative to beta-actin; format: functional
# [2] = tested on: U-118-MG; assay: Effect on IL6 mRNA expression in human U118MG cells at EC10 by qPCR method relative to beta-actin; format: functional
# [3] = tested on: U-118-MG; assay: Effect on CCL2 mRNA expression in human U118MG cells at EC10 by qPCR method relative to beta-actin; format: functional
# [4] = tested on: SH-SY5Y; assay: Effect on JUN mRNA expression in human SH-SY5Y cells at EC10 by qPCR method relative to beta-actin; format: functional
# [5] = tested on: SK-N-SH; assay: Effect on FASLG mRNA expression in human SK-N-SH cells at EC10 by qPCR method relative to beta-actin; format: functional
# [6] = tested on: SK-N-SH; assay: Effect on CYP19A1 mRNA expression in human SK-N-SH cells at EC10 by qPCR method relative to beta-actin; format: functional
# [7] = tested on: U-118-MG; assay: Effect on CYP19A1 mRNA expression in human U118MG cells at EC10 by qPCR method relative to beta-actin; format: functional
# [8] = tested on: SH-SY5Y; assay: Effect on MAG mRNA expression in human SH-SY5Y cells at EC10 by qPCR method relative to beta-actin; format: functional
# [9] = tested on: SK-N-SH; assay: Effect on ADRB2 mRNA expression in human SK-N-SH cells at EC10 by qPCR method relative to beta-actin; format: functional
# [10] = tested on: U-118-MG; assay: Effect on CFLAR mRNA expression in human U118MG cells at EC10 by qPCR method relative to beta-actin; format: functional
# [11] = tested on: SK-N-SH; assay: Effect on MYC mRNA expression in human SK-N-SH cells at EC10 by qPCR method relative to beta-actin; format: functional
# [12] = tested on: SK-N-SH; assay: Effect on AKT1 mRNA expression in human SK-N-SH cells at EC10 by qPCR method relative to beta-actin; format: functional
# [13] = tested on: U-118-MG; assay: Effect on BCL2 mRNA expression in human U118MG cells at EC10 by qPCR method relative to beta-actin; format: functional
# [14] = tested on: SH-SY5Y; assay: Effect on OPRD1 mRNA expression in human SH-SY5Y cells at EC10 by qPCR method relative to beta-actin; format: functional
# [15] = tested on: U-118-MG; assay: Effect on AGTR2 mRNA expression in human U118MG cells at EC10 by qPCR method relative to beta-actin; format: functional
# [16] = tested on: SH-SY5Y; assay: Effect on NFKB1 mRNA expression in human SH-SY5Y cells at EC10 by qPCR method relative to beta-actin; format: functional
# [17] = tested on: U-118-MG; assay: Effect on ADCY5 mRNA expression in human U118MG cells at EC10 by qPCR method relative to beta-actin; format: functional
# [18] = tested on: SH-SY5Y; assay: Effect on IL1B mRNA expression in human SH-SY5Y cells at EC10 by qPCR method relative to beta-actin; format: functional
# [19] = tested on: SK-N-SH; assay: Effect on IL1B mRNA expression in human SK-N-SH cells at EC10 by qPCR method relative to beta-actin; format: functional
# [20] = Cytotoxicity against human U118MG cells measured after 24 hrs by crystal-violet staining based assay; format: toxicity, cell-based; conditions: u-118-mg
# [21] = tested on: U-118-MG; assay: Effect on COL1A1 mRNA expression in human U118MG cells at EC10 by qPCR method relative to beta-actin; format: functional
# [22] = tested on: SK-N-SH; assay: Effect on CFLAR mRNA expression in human SK-N-SH cells at EC10 by qPCR method relative to beta-actin; format: functional
# [23] = tested on: U-118-MG; assay: Effect on TSHR mRNA expression in human U118MG cells at EC10 by qPCR method relative to beta-actin; format: functional
# [24] = tested on: SK-N-SH; assay: Effect on VEGFA mRNA expression in human SK-N-SH cells at EC10 by qPCR method relative to beta-actin; format: functional
# [25] = tested on: SH-SY5Y; assay: Effect on AKT1 mRNA expression in human SH-SY5Y cells at EC10 by qPCR method relative to beta-actin; format: functional
# [26] = target: Sphingosine 1-phosphate receptor 1 (Homo sapiens) (UniProt P21453); assay: Agonist activity at sphingosine-1-phosphate receptor (unknown origin) expressed in HEK293 cells assessed as increase in cAMP level at EC10 after 18 hrs by CRE-responsive renilla luciferase reporter gene assay; format: functional, cell-based
# [27] = tested on: U-118-MG; assay: Effect on CXCL10 mRNA expression in human U118MG cells at EC10 by qPCR method relative to beta-actin; format: functional
# [28] = tested on: SH-SY5Y; assay: Effect on EPHA1 mRNA expression in human SH-SY5Y cells at EC10 by qPCR method relative to beta-actin; format: functional
# [29] = tested on: SH-SY5Y; assay: Effect on CCL3 mRNA expression in human SH-SY5Y cells at EC10 by qPCR method relative to beta-actin; format: functional
# [30] = tested on: U-118-MG; assay: Effect on EDNRA mRNA expression in human U118MG cells at EC10 by qPCR method relative to beta-actin; format: functional
# [31] = tested on: SK-N-SH; assay: Effect on BCL2 mRNA expression in human SK-N-SH cells at EC10 by qPCR method relative to beta-actin; format: functional
# [32] = tested on: SH-SY5Y; assay: Effect on AGTR2 mRNA expression in human SH-SY5Y cells at EC10 by qPCR method relative to beta-actin; format: functional
# [33] = tested on: SK-N-SH; assay: Effect on EDNRA mRNA expression in human SK-N-SH cells at EC10 by qPCR method relative to beta-actin; format: functional
# [34] = tested on: U-118-MG; assay: Effect on IFNG mRNA expression in human U118MG cells at EC10 by qPCR method relative to beta-actin; format: functional
# [35] = tested on: SK-N-SH; assay: Effect on GRM1 mRNA expression in human SK-N-SH cells at EC10 by qPCR method relative to beta-actin; format: functional
# [36] = tested on: SK-N-SH; assay: Effect on FGF2 mRNA expression in human SK-N-SH cells at EC10 by qPCR method relative to beta-actin; format: functional
# [37] = tested on: SH-SY5Y; assay: Effect on VEGFA mRNA expression in human SH-SY5Y cells at EC10 by qPCR method relative to beta-actin; format: functional
# [38] = tested on: SH-SY5Y; assay: Effect on FGF2 mRNA expression in human SH-SY5Y cells at EC10 by qPCR method relative to beta-actin; format: functional
# [39] = tested on: U-118-MG; assay: Effect on JUN mRNA expression in human U118MG cells at EC10 by qPCR method relative to beta-actin; format: functional
# [40] = tested on: SH-SY5Y; assay: Effect on CFLAR mRNA expression in human SH-SY5Y cells at EC10 by qPCR method relative to beta-actin; format: functional
# [41] = tested on: U-118-MG; assay: Effect on IL2 mRNA expression in human U118MG cells at EC10 by qPCR method relative to beta-actin; format: functional
# [42] = tested on: SH-SY5Y; assay: Effect on S1PR3 mRNA expression in human SH-SY5Y cells at EC10 by qPCR method relative to beta-actin; format: functional
# [43] = tested on: SH-SY5Y; assay: Effect on IL2 mRNA expression in human SH-SY5Y cells at EC10 by qPCR method relative to beta-actin; format: functional
# Sequence of Sphingosine 1-phosphate receptor 1 (Homo sapiens) (P21453 whole entry): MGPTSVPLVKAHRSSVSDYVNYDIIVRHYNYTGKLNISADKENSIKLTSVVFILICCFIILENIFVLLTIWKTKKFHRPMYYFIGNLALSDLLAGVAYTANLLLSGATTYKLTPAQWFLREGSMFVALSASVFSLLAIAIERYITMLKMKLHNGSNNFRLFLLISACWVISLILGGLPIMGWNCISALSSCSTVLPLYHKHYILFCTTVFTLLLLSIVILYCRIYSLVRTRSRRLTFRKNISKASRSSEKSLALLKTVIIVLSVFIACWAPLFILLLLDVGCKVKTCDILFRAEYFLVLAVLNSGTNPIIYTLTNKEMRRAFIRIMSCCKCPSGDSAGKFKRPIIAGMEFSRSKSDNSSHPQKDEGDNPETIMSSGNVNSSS
smiles,measurement,setting,value
CCCCCCCCc1ccc(CCC(N)(CO)CO)cc1 [FINGOLIMOD],fold change (FC),[1],3.5508
same,fold change (FC),[2],-4.4847
same,fold change (FC),[3],-5.2826
same,fold change (FC),[4],-3.5677
same,fold change (FC),[5],-3.5415
same,fold change (FC),[6],-7.2069
same,fold change (FC),[7],-4.301
same,fold change (FC),[8],4.3772
same,fold change (FC),[9],-6.7945
same,fold change (FC),[10],-3.53
same,fold change (FC),[11],-8.3361
same,fold change (FC),[12],-12.2684
same,fold change (FC),[13],-4.7035
same,fold change (FC),[14],5.0193
same,fold change (FC),[15],4.8347
same,fold change (FC),[16],-3.9931
same,fold change (FC),[17],-5.5057
same,fold change (FC),[18],-4.7158
same,fold change (FC),[19],-5.3866
same,EC10,[20],610 nM
same,fold change (FC),[21],-5.339
same,fold change (FC),[22],-11.0378
same,fold change (FC),[23],-3.664
same,fold change (FC),[24],-7.7644
same,fold change (FC),[25],-9.4316
same,Activity,[26],Active
same,fold change (FC),[27],-8.4782
same,fold change (FC),[28],-6.442
same,fold change (FC),[29],-4.8232
same,fold change (FC),[30],3.242
same,fold change (FC),[31],-2.7547
same,fold change (FC),[32],3.2887
same,fold change (FC),[33],7.6112
same,fold change (FC),[34],-5.5428
same,fold change (FC),[35],-4.8631
same,fold change (FC),[36],-7.3456
same,fold change (FC),[37],-4.3696
same,fold change (FC),[38],-8.2392
same,fold change (FC),[39],-3.0183
same,fold change (FC),[40],-13.7609
CCCCCCCCn1nnnc1CCC(N)(CO)CO.Cl,fold change (FC),[2],-4.7651
same,fold change (FC),[41],-4.2107
same,fold change (FC),[4],-4.7214
same,fold change (FC),[5],-2.9626
same,fold change (FC),[6],-5.5959
same,fold change (FC),[42],-2.5755
same,fold change (FC),[7],-3.3614
same,fold change (FC),[9],-4.3526
same,fold change (FC),[10],-2.9826
same,fold change (FC),[11],-4.315
same,fold change (FC),[12],-5.3124
same,fold change (FC),[13],-4.6127
same,fold change (FC),[14],2.8007
same,fold change (FC),[15],4.8726
same,fold change (FC),[16],-3.8433
same,fold change (FC),[17],-5.787
same,fold change (FC),[18],-6.5966
same,fold change (FC),[19],-4.7796
same,EC10,[20],540 nM
same,fold change (FC),[21],-5.8779
same,fold change (FC),[22],-3.3101
same,fold change (FC),[43],-3.9071
same,fold change (FC),[23],3.1513
same,fold change (FC),[24],-7.9138
same,fold change (FC),[25],-4.1766
same,Activity,[26],Active
same,fold change (FC),[28],-6.2326
same,fold change (FC),[30],4.4344
same,fold change (FC),[31],-7.8184
same,fold change (FC),[32],8.9431
same,fold change (FC),[33],7.0402
same,fold change (FC),[34],-4.5394
same,fold change (FC),[35],-5.0346
same,fold change (FC),[36],-6.7243
same,fold change (FC),[37],-6.1896
same,fold change (FC),[38],-3.8516
same,fold change (FC),[39],-5.0916
same,fold change (FC),[40],-3.1434
CCCCCCCCn1nnnc1-c1ccc(C(O)CC(N)(CO)CO)cc1.Cl (stereo unspecified),fold change (FC),[1],3.9862
same,fold change (FC),[2],-4.3829
same,fold change (FC),[41],-4.5247
same,fold change (FC),[3],-5.2393
same,fold change (FC),[42],-3.7208
same,fold change (FC),[8],2.631
same,fold change (FC),[16],-3.5415
same,fold change (FC),[17],-6.08
same,EC10,[20],360 nM
same,fold change (FC),[43],-4.4248
same,Activity,[26],Active
same,fold change (FC),[27],-4.8547
same,fold change (FC),[29],-2.4869
